Results from patent EP2857388A1, “Azoles containing sulfone” (Grünenthal GmbH, priority 2013, dated 2015).

Molecular target: T1, human B1R (Homo sapiens, UniProt P46663)
T1 construct: expressed in transfected cells; host or cells: CHO K1 cells (Chinese Hamster Ovary), stably transfected
T1 sequence (P46663 1-353): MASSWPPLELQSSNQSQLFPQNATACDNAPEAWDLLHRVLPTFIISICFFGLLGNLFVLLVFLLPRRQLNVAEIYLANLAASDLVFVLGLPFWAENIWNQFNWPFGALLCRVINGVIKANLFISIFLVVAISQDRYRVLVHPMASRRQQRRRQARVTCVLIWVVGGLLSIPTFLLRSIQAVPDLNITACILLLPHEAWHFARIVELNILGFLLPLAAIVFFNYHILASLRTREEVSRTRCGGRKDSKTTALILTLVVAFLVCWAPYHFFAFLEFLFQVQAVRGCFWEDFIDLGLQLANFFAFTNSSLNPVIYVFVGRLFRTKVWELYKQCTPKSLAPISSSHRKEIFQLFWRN
Assay: Functional assay at bradykinin receptor 1 (B1R): Ca2+ fluorescence (Fluo-4) in FLIPR/Novostar, antagonist mode
Type: cell-based
Conditions: test substance 10 µM; CHO K1 cells stably transfected with human B1R gene (hB1R-Zellen); agonist Lys-Des-Arg9-Bradykinin at EC80; % inhibition relative to maximal achievable inhibition; read-out: % Inhibierung (human B1R) bei 10 µM
Procedure: Die agonistische bzw. antagonistische Wirkung von Substanzen kann am Bradykinin Rezeptor 1 (B1R) der Spezies Mensch und Ratte mit ektopisch exprimierenden Zelllinien (CHO K1 Zellen) und mit Hilfe eines Ca^2+-sensitiven Farbstoffs (Fluo-4) im Fluorescent Imaging Plate Reader (FLIPR) quantifiziert werden. Die Angabe in % Aktivierung wird bezogen auf das Ca^2+-Signal nach Zugabe von Lys-Des-Arg^9-Bradykinin ([…]), bzw. Des-Arg^9-Bradykinin (100 nM). Antagonisten führen zu einer Unterdrückung des Ca^2+-Einstroms nach der Zugabe des Agonisten. Angegeben werden % Inhibition im Vergleich zu der maximal erreichbaren Inhibition.
Die agonistische bzw. antagonistische Wirkung von Substanzen kann am Bradykinin Rezeptor 1 (B1R) der Spezies Mensch und Ratte mit folgendem Assay bestimmt werden. Gemäß diesem Assay wird der intrazelluläre Ca^2+-Anstieg nach Gabe eines B1 R Agonisten mit Hilfe eines Ca^2+-sensitiven Farbstoffs (Typ Fluo-4, Molecular Probes Europe BV, Leiden NL) im Fluorescent Imaging Plate Reader (FLIPR, Molecular Devices, Sunnyvale, USA) und/oder im Novostar (BMG Labtech GmbH, Offenburg, DE) quantifiziert.
Es werden Chinese Hamster Ovary Zellen (CHO K1 Zellen) verwendet, die stabil mit dem humanen B1 R-Gen (hB1R-Zellen) bzw. dem B1 R-Gen der Ratte (rB1R-Zellen) transfiziert sind. Für funktionelle Untersuchungen werden diese Zellen auf schwarze 96-Loch-Platten mit klarem Boden (BD Biosciences, Heidelberg, DE oder Greiner, Frickenhausen, DE) in einer Dichte von 20.000 - 35.000 Zellen/Loch ausplattiert. Über Nacht werden die Zellen bei 37°C und 5 % CO2 in Kulturmedium (hB1 R-Zellen: Nutrient Mixture Ham's F12, Gibco Invitrogen GmbH, Karlsruhe, Deutschland oder DMEM, Sigma-Aldrich, Taufkirchen, Deutschland; rB1R-Zellen: D-MEM/F12, Gibco Invitrogen GmbH, Karlsruhe, DE) mit 10 Vol-% FBS (Fetal bovine serum, Gibco Invitrogen GmbH, Karlsruhe, DE oder PAN Biotech GmbH, Aidenbach, DE) belassen. Am folgenden Tag werden die Zellen mit 2,13 µM Fluo-4 (Molecular Probes Europe BV, Leiden, NL) in HBSS-Puffer (Hank's buffered saline solution, Gibco Invitrogen GmbH, Karlsruhe, DE) mit 2,5 mM Probenecid (Sigma-Aldrich, Taufkirchen, DE) und 10 mM HEPES (Sigma-Aldrich, Taufkirchen, DE) für 60 min bei 37°C beladen. Anschließend werden die Platten 2 x mit HBSS-Puffer gewaschen und mit HBSS-Puffer versetzt, der zusätzlich 0,1 % BSA (bovines Serumalbumin; Sigma-Aldrich, Taufkirchen, Deutschland), 5,6 mM Glucose und 0,05 % Gelatine (Merck KGaA, Darmstadt, DE) enthält. Nach einer weiteren Inkubation von 20 Minuten bei RT werden die Platten zur Ca^2+-Messung im FLIPR oder Novostar eingesetzt. Alternativ wird mit Puffer A (15 mM HEPES, 80 mM NaCl, 5 mM KCI, 1,2 mM CaCl2, 0,7 mM MgSO4, 2g/L Glucose, 2,5 mM Probenecid) gewaschen und mit Puffer A versetzt mit 2,5 µM Fluo-4 und 0,025 % Pluronic F127 (Sigma-Aldrich, Taufkirchen, DE) beladen. Danach werden die Zellen 2 x mit Puffer A gewaschen und für 30 Minuten mit Puffer A, der zusätzlich 0,05 % BSA und 0,05 % Gelatine enthält bei RT inkubiert und danach zur Ca^2+-Messung im FLIPR oder Novostar eingesetzt.
Die Ca^2+-abhängige Fluoreszenz wird dabei vor und nach Zugabe von Substanzen gemessen (λex = 488 nm, λem = 540 nm). Die Quantifizierung erfolgt durch die Messung der höchsten Fluoreszenzintensität (FC, Fluorescence Counts) über die Zeit.
Das FLIPR-Protokoll besteht aus 2 Substanzzugaben, die im FLIPR pipettiert werden. Bei Messungen im Novostar wird nur die zweite Substanzzugabe im Gerät pipettiert. Beide Geräte messen die Fluoreszenzintensität über die Zeit. Zunächst werden Testsubstanzen (10 µM) auf die Zellen pipettiert und der intrazelluläre Ca^2+-Anstieg mit der Kontrolle (hB1 R: Lys-Des-Arg^9-Bradykinin >= 50 nM; rB1 R: Des-Arg^9-Bradykinin >= 1 µM) verglichen. Daraus ergibt sich die Angabe in % Aktivierung bezogen auf das Ca^2+-Signal nach Zugabe von Lys-Des-Arg^9-Bradykinin (>= 50 nM), bzw. Des-Arg^9-Bradykinin (>=1 µM). Nach 6-20 Minuten Inkubation werden Lys-Des-Arg^9-Bradykinin (hB1 R) bzw. […]

Compound	inhibition at 10 µM [%]
CN1CCN(C2CCC(NC(=O)Cc3nc(CS(=O)(=O)c4cccc(Cl)c4Cl)no3)C(C)(C)C2)CC1 (stereo not shown) [CC-48, 2-[3-[[(2,3-Dichlor-phenyl)sulfonyl]-methyl]-[1,2,4]oxadiazol-5-yl]-N-[2,2-dimethyl-4-(4-methyl-piperazin-1-yl)-cyclohexyl]-acetamid]	81
CN(C)C1CCC(NC(=O)Cc2nc(CS(=O)(=O)c3ccc(Cl)c(Cl)c3)no2)CC1 (stereo not shown) [CC-50, 2-[3-[[(3,4-Dichlorphenyl)sulfonyl]-methyl]-[1,2,4]oxadiazol-5-yl]-N-(4-dimethylamino-cyclohexyl)-acetamid]	54
CC1(C)CC(N2CCCC2)CCC1NC(=O)Cc1nc(CS(=O)(=O)c2ccc(Cl)c(Cl)c2)no1 (stereo not shown) [CC-53, 2-[3-[[(3,4-Dichlorphenyl)sulfonyl]-methyl]-[1,2,4]oxadiazol-5-yl]-N-(2,2-dimethyl-4-pyrrolidin-1-yl-cyclohexyl)-acetamid]	100
CN(C)C1CCC(NC(=O)Cc2nc(CS(=O)(=O)c3cccc(Cl)c3Cl)no2)CC1 (stereo not shown) [CC-59, 2-[3-[[(2,3-Dichlor-phenyl)sulfonyl]-methyl]-[1,2,4]oxadiazol-5-yl]-N-(4-dimethylamino-cyclohexyl)-acetamid]	63
Cc1cc(S(=O)(=O)Cc2noc(CC(=O)NC3CCC(N4CCCC4)CC3)n2)c(C)cc1Cl (stereo not shown) [CC-70, 2-[3-[[(4-Chlor-2,5-dimethyl-phenyl)sulfonyl]-methyl]-[1,2,4]oxadiazol-5-yl]-N-(4-pyrrolidin-1-yl-cyclohexyl)-acetamid]	93
O=C(Cc1nc(CS(=O)(=O)c2cccc(Cl)c2Cl)no1)NC1CCC(N2CCCC2)CC1 (stereo not shown) [CC-71, 2-[3-[[(2,3-Dichlor-phenyl)sulfonyl]-methyl]-[1,2,4]oxadiazol-5-yl]-N-(4-pyrrolidin-1-yl-cyclohexyl)-acetamid]	73

The remaining lines, values ahead:

inhibition at 10 µM [%]	Compound
62	CC(=O)N1CCC(NC(=O)Cc2nc(CS(=O)(=O)c3cccc(Cl)c3Cl)no2)C(C)(C)C1 (stereo not shown) [CC-47, N-(1-Acetyl-3,3-dimethyl-piperidin-4-yl)-2-[3-[[(2,3-dichlor-phenyl)sulfonyl]-methyl]-[1,2,4]oxa-diazol-5-yl]-acetamid]
100	COc1cc(C)c(S(=O)(=O)Cc2nc(CC(=O)NC3CCNCC3(C)C)no2)c(C)c1 (stereo not shown) [CC-52, N-(3,3-Dimethyl-piperidin-4-yl)-2-[5-[[(4-methoxy-2,6-dimethyl-phenyl)sulfonyl]-methyl]-[1,2,4]oxa-diazol-3-yl]-acetamid]
52	O=C(Cc1nc(CS(=O)(=O)c2cccc(Cl)c2Cl)no1)NC1CCNCC1 [CC-54, 2-[3-[[(2,3-Dichlor-phenyl)sulfonyl]-methyl]-[1,2,4]oxadiazol-5-yl]-N-piperidin-4-yl-acetamid]
100	Cc1cc(S(=O)(=O)Cc2noc(CC(=O)NC3CCC(NC4CC4)CC3(C)C)n2)c(C)cc1Cl (stereo not shown) [CC-57, 2-[3-[[(4-Chlor-2,5-dimethyl-phenyl)sulfonyl]-methyl]-[1,2,4]oxadiazol-5-yl]-N-[4-(cyclopropyl-amino)-2,2-dimethyl-cyclohexyl]-acetamid]
54	Cc1cc(S(=O)(=O)Cc2noc(CC(=O)NC3CCNCC3(C)C)n2)c(C)cc1Cl (stereo not shown) [CC-62, 2-[3-[[(4-Chlor-2,5-dimethyl-phenyl)sulfonyl]-methyl]-[1,2,4]oxadiazol-5-yl]-N-(3,3-dimethyl-piperidin-4-yl)-acetamid]
81	COc1cc(C)c(S(=O)(=O)Cc2nnc(CC(=O)NC3CCN(C(C)=O)CC3(C)C)o2)c(C)c1 (stereo not shown) [CC-69, N-(1-Acetyl-3,3-dimethyl-piperidin-4-yl)-2-[5-[[(4-methoxy-2,6-dimethyl-phenyl)sulfonyl]-methyl]-[1,3,4]oxadiazol-2-yl]-acetamid]
60	COCCN1CCC(NC(=O)Cc2nc(CS(=O)(=O)c3cccc(Cl)c3Cl)no2)C(C)(C)C1 (stereo not shown) [CC-72, 2-[3-[[(2,3-Dichlor-phenyl)sulfonyl]-methyl]-[1,2,4]oxadiazol-5-yl]-N-[1-(2-methoxy-ethyl)-3,3-di-methyl-piperidin-4-yl]-acetamid]
